# Assay results from patent US11766397B2, “Bioactive compositions comprising ficus serum fracton and methods to reduce the appearance of skin hyperpigmentation” (ISP INVESTMENTS LLC, priority 2010, dated 2023).
# System: facial hyperpigmented spots in humans
# Assay: In vivo testing for hyperpigmented spot reduction and melanin evenness (split face, vehicle controlled)
# Set-up: species or system human
# Settings: for Melanin Evenness vs Vehicle / NC2SAF (spot area fraction) vs Vehicle: twice daily facial application
# Experimental: A 9 week in-vivo study was conducted using a round robin, vehicle controlled, split face design including a 1 week normalization period with 270 subjects. The 270 subjects were screened according to inclusion/exclusion criteria which included the following:
# • Has hyperpigmented spots around cheek and/or periorbital area on both sides of the face. • Has at least 1 hyperpigmented spot of 8-10 mm diameter, 4 spots of 4-6 mm or 10 spots of 2-3 mm diameter (sun spots., freckles, or melasma spots) or • equivalent spot area in the cheek area on each side of their face. • Is willing to refrain from sun exposure by using supplied UV lotion and physical UV blocks, such as a hat, to avoid facial sunburn, tanning or wind burn.
# • Has been diagnosed as having atopy, eczema, psoriasis, or other chronic skin diseases. • Has obvious signs of facial skin disease (e.g., more than 5 pimples, areas of red scaling skin, superficial thin blood vessels, etc.). • Has significant areas of discoloration or scarring on the face. • Has more than 3 prominent moles (<3 mm) on the face.
# Two hundred and seventy subjects were recruited for the study. Approximately 60 subjects dropped during the course of the study. Each subject received two coded test formulations for twice daily application to each half of the face. Images of the facial treatment sites were captured at baseline (week 0), and after 4 and 8 weeks of treatment and analyzed for changes to skin color and spot size and color. The product formulations included a vehicle control, the Vehicle+0.55% FSF, and the vehicle+5% vitamin B3 compound (Niacinamide).
# Noncontact spectrophotometric intracutaneous analysis (SiaScopy, Astron Clinica, UK) was used to collect and analyze the subject images. The method used a digital camera (e.g., Fuji S2 digital SLR) as a […] and a flash lighting source (e.g., Sigma Super flash light source) to recover facial chromophore information. A cross polarized filter was placed in front of the camera and the lighting source to eliminate specular reflection.
# Chromophore mapping of the concentration and distribution of eumelanin (melanin) and oxyhaemoglobin produces grayscale concentration maps of each of these chromophores. Image analysis software, such as Optimas 6.5, can be used to select a region of interest in each chromophore map from which mean grayscale values and spot area fraction are calculated. Spot area fraction refers to total area occupied by melanin spots as a percentage of the whole region of interest. A description of one type of chromophore mapping can be found in EP 1,810,614 and “The Distribution of Melanin in Skin Determined In Vivo”, British Journal of Dermatology, 2007, pp 620-628.
structure (smiles),measurement,setting,value
NC(=O)c1cccnc1 [Niacinamide],Melanin Evenness vs Vehicle,4 weeks,ns (ns = not significant (p > 0.3))
same,NC2SAF (spot area fraction) vs Vehicle,4 weeks,as
same,Melanin Evenness vs Vehicle,8 weeks,sig (sig = significant (p < 0.1))
same,NC2SAF (spot area fraction) vs Vehicle,8 weeks,sig (sig = significant (p < 0.1))
same,reducing hyperpigmented spots,After 8 weeks,best performer
